The record followed here is patent publication US12338256B2, “Aza-tetracyclic oxazepine compounds and uses thereof” (Genentech, Inc., priority 2022, dated 2025).

Where two headings read alike, the source gives them in different places. Some results are limits rather than exact numbers.

What all share (assay type): cell-based
Assay [1] has as its system AsPC-1 (homozygous mutant KRAS G12D human pancreatic cell line). Description: KRAS 3D-Cell Proliferation Assay, AsPC-1 (Example 503). The settings on record: AsPC-1 3D culture, 7 days, CellTiter-Glo 3D, read-out: Prolif AsPC-1 3D ATP IC50. How it is done:
Example 503: KRAS 3D-Cell Proliferation Assays. Cellular potencies of compounds are assessed by evaluating inhibition of proliferation in 3D cultures of homozygous mutant KRAS G12D human pancreatic cell lines (AsPC-1 and HPAC) as compared to a KRAS wild type human lung adenocarcinoma cell line (PC-9 and/or H1975). Cells are seeded into 384-well black round-bottom, ultra-low attachment assay plates in 50 uL cell growth medium (RPMI-1640 with 10% fetal bovine serum and 2 mM L-glutamine). After overnight incubation at 37° C. and 5% CO2, compounds solubilized in DMSO are added as dilution series to the wells in a total volume of 150 nL (0.3% DMSO final). The cells are incubated for 7 days at 37° C. and 5% CO2. Cell proliferation is quantitated by addition of 40 uL/well of CellTiter-GloÒ 3D (Promega), and the well contents are mixed 20× at high speed using liquid handling automation workstation (Bravo with 384-well head) and centrifuged at 1500 rpm for 2 minutes to eliminate bubbles. This reagent in combination with mechanical disruption releases the cellular ATP to promote activity in a luciferase-based enzyme/substrate chemiluminescent detection system. After a 30-minute incubation under ambient conditions with shaking and an additional 10 minutes without shaking, the luminescence is read on a plate reader (e.g., EnVision [PerkinElmer]). The results are normalized to percent inhibition based on the following control samples: DMSO (0% inhibition) and 1 μM staurosporine (100% inhibition). The normalized luminescence results are plotted against compound concentration, and the data are fit to a 4-parameter Hill equation to determine the IC50 values.
On the technique in general: ATP-based viability assays read luminescence as a measure of living cells.

Assay [2] deals with H1975 (KRAS wild type human lung adenocarcinoma cell line). Description: KRAS 3D-Cell Proliferation Assay, H1975 (Example 503). Particulars: H1975 3D culture, 7 days, CellTiter-Glo 3D, read-out: Prolif H1975 3D ATP IC50. Summed up:
(§1)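 KRAS G12D homozygous pancreatic lines and KRAS wild-type lung lines grown as 3D cultures in ultra-low-attachment wells in RPMI-1640/10% FBS, dosed after overnight with compound dilution series (0.3% DMSO final) for 7 days at 37 °C. ATP read by CellTiter-Glo 3D luminescence; IC50 from 4-parameter Hill fit, normalized to DMSO and 1 μM staurosporine.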

Assay [3] relates to HPAC (homozygous mutant KRAS G12D human pancreatic cell line). The assay is described as follows: KRAS 3D-Cell Proliferation Assay, HPAC (Example 503). The settings on record: HPAC 3D culture, 7 days, CellTiter-Glo 3D, read-out: Prolif HPAC 3D ATP IC50. Summed up: as §1

As a reminder, the IC50 is the concentration that gives 50% inhibition. `Cc1cc(N)c(F)c(-c2nc3c4c(ncnc4c2Cl)N2C[C@H]4CC[C@H](N4)[C@H]2[C@H](C)O3)c1C(F)(F)F` (atropisomer, axis not shown) [Compound 95, 3-((5S,5aS,6S,9R)-1-chloro-5-methyl-5a,6,7,8,9,10-hexahydro-5H-4-oxa-3,10a,11,13,14-pentaaza-6,9-methanonaphtho[1,8-ab]heptalen-2-yl)-2-fluoro-5-methyl-4-(trifluoromethyl)aniline]: the IC50 in assay [1] (Homo sapiens, ASPC1, 168 h) is 200 nM.
As to `C[C@@H]1Oc2nc(-c3c(Cl)c(N)c(F)c(F)c3C(F)(F)F)c(F)c3nc(OC[C@@]45CCCN4C[C@H](F)C5)nc(c23)N2C[C@H]3CC[C@H](N3)[C@@H]12` (atropisomer, axis not shown; (aS)) [Compound 106, 2-Chloro-5,6-difluoro-3-((5S,5aS,6S,9R)-1-fluoro-12-(((2R,7aS)-2-fluorotetrahydro-1H-pyrrolizin-7a(5H)-yl)methoxy)-5-methyl-5a,6,7,8,9,10-hexahydro-5H-4-oxa-3,10a,11,13,14-pentaaza-6,9-methanonaphtho[1,8-ab]heptalen-2-yl)-4-(trifluoromethyl)aniline], the IC50 in assay [1] (Homo sapiens, ASPC1, 168 h) came to 5.4 nM; in assay [2] (Homo sapiens, NCI-H1975, 168 h) it was 770 nM.
As to `Cc1c(F)c(N)cc(-c2nc3c4c(nc(OC[C@]5(CN6CC7(COC7)C6)CC5(F)F)nc4c2F)N2C[C@H]4CC[C@H](N4)[C@H]2[C@H](C)O3)c1C(F)(F)F` (mixture of isomers) [165 a], the IC50 in assay [1] was 0.6 nM; in assay [3], 0.63 nM; in assay [2] it was 374 nM.
On to `Cc1c(F)c(N)cc(-c2nc3c4c(nc(OCC5COCC6CCCN65)nc4c2F)N2CC4CCC(N4)C2C(C)O3)c1C(F)(F)F` (single isomer, unassigned) [121 (isomer 2)], for which the IC50 in assay [1] (Homo sapiens, ASPC1, 168 h) amounted to 41 nM.
Still for that read-out and setting: as for `Cc1c(F)c(N)cc(-c2nc3c4c(nc(OCC56CCCC5N(C)CCC6)nc4c2F)N2C[C@H]4CC[C@H](N4)[C@H]2[C@H](C)O3)c1C(F)(F)F` (single isomer, unassigned) [126 (isomer 1)], the figure is 0.6 nM.
Still for that read-out and setting: for `Cc1c(F)c(N)cc(-c2nc3c4c(nc(OCC56CCCN5CC(F)C6F)nc4c2F)N2C[C@H]4CC[C@H](N4)[C@H]2[C@H](C)O3)c1C(F)(F)F` (single isomer, unassigned) [143 (isomer 2)] the value was 4.1 nM.
Turning to `Cc1c(F)c(N)cc(-c2nc3c4c(nc(OC[C@@]56CCCN5C[C@H](F)C6)nc4c2F)N2C[C@H]4CC[C@H](N4)[C@@H]2C(C)O3)c1C(F)(F)F` (single isomer, unassigned) [237 (isomer 2)], the IC50 in assay [1] (Homo sapiens, ASPC1, 168 h) worked out at 200 nM; in assay [3] (Homo sapiens, HPAC, 168 h), 3.63 nM; in assay [2] (Homo sapiens, NCI-H1975, 168 h) it was 1040 nM.
As for `Cc1c(F)c(N)cc(-c2nc3c4c(nc(OCC56CCN(C)C5COC6)nc4c2F)N2C[C@H]4CC[C@H](N4)[C@H]2[C@H](C)O3)c1C(F)(F)F` (single isomer, unassigned) [258 (isomer 1)], the IC50 in assay [1] (Homo sapiens, ASPC1, 168 h) turned out to be 8.1 nM; in assay [3] (Homo sapiens, HPAC, 168 h), 5 nM; in assay [2] (Homo sapiens, NCI-H1975, 168 h), 1560 nM.
For `Cc1c(F)c(N)cc(-c2nc3c4c(nc(OCC56CCN5CC(F)(F)C6)nc4c2F)N2C[C@H]4CC[C@H](N4)[C@H]2[C@H](C(F)(F)F)O3)c1C(F)(F)F` (single isomer, unassigned) [263 (diast. 1)], in assay [1] (Homo sapiens, ASPC1, 168 h), the IC50 came out at 7.1 nM.
`Cc1cc(N)c(F)c(-c2nc3c4c(nc(OCC56CCN5CC(F)(F)C6)nc4c2F)N2C[C@H]4CC[C@H](N4)[C@H]2[C@H](C)O3)c1` (stereo in doubt) [Compound 23, 3-((5S,5aS,6S,9R)-12-((3,3-difluoro-1-azabicyclo[3.2.0]heptan-5-yl)methoxy)-1-fluoro-5-methyl-5a,6,7,8,9,10-hexahydro-5H-4-oxa-3,10a,11,13,14-pentaaza-6,9-methanonaphtho[1,8-ab]heptan-2-yl)-2-fluoro-5-methylaniline]: the IC50 in assay [1] is not below 20000 nM; in assay [1] (Homo sapiens, ASPC1, 168 h), 14000 nM.
Consider `Cc1c(F)c(N)cc(-c2nc3c4c(nc(OC[C@]5(CN6CC7(COC7)C6)CC5(F)F)nc4c2F)N2C[C@H]4CC[C@H](N4)[C@H]2[C@H](C(F)(F)F)O3)c1C(F)(F)F` [255 a], for which the IC50 in assay [1] came out at 6.6 nM.
For `C#Cc1c(F)ccc2cccc(-c3nc4c5c(nc(OCC67CCN6CC(F)(F)C7)nc5c3F)N3C[C@H]5CC[C@H](N5)[C@H]3[C@H](C)O4)c12` (stereo partly drawn) [Compound 22, (5S,5aS,6S,9R)-12-((3,3-difluoro-1-azabicyclo[3.2.0]heptan-5-yl)methoxy)-2-(8-ethynyl-7-fluoronaphthalen-1-yl)-1-fluoro-5-methyl-5a,6,7,8,9,10-hexahydro-5H-4-oxa-3,10a,11,13,14-pentaaza-6,9-methanonaphtho[1,8-ab]heptalene], the IC50 in assay [1] (Homo sapiens, ASPC1, 168 h) is 60.3 nM; in assay [3] (Homo sapiens, HPAC, 168 h), 139 nM; in assay [2] (Homo sapiens, NCI-H1975, 168 h), 20000 nM.
For `Cc1c(F)c(N)cc(-c2nc3c4c(nc(OC[C@@]56CCCN5C[C@H](F)C6)nc4c2F)N2C[C@H]4CC[C@H](N4)[C@H]2CO3)c1C(F)(F)F` [Compound 61, 2-Fluoro-5-((5aS,6S,9R)-1-fluoro-12-(((2R,7aS)-2-fluorotetrahydro-1H-pyrrolizin-7a(5H)-yl)methoxy)-5a,6,7,8,9,10-hexahydro-5H-4-oxa-3,10a,11,13,14-pentaaza-6,9-methanonaphtho[1,8-ab]heptalen-2-yl)-3-methyl-4-(trifluoromethyl)aniline] the same measures were 44.5 nM, 21.3 nM and 2610 nM.
The corresponding values for `Cc1c(F)c(N)cc(-c2nc3c4c(nc(OC[C@@]56CCCN5CC5(CC5(F)F)C6)nc4c2F)N2C[C@H]4CC[C@H](N4)[C@H]2[C@H](C)O3)c1C(F)(F)F` (stereo partly drawn) [Compound 62, 5-((5S,5aS,6S,9R)-12-(((7a′S)-2,2-Difluorodihydro-1′H,3′H-spiro[cyclopropane-1,2′-pyrrolizin]-7a′(5′H)-yl)methoxy)-1-fluoro-5-methyl-5a,6,7,8,9,10-hexahydro-5H-4-oxa-3,10a,11,13,14-pentaaza[6,9]methanonaphtho[1,8-ab]heptalen-2-yl)-2-fluoro-3-methyl-4-(trifluoromethyl)aniline] are 0.3 nM, 0.261 nM and 111 nM.
For the molecule `Cc1c(F)c(N)cc(-c2nc3c4c(nc(OC[C@@]56CCCN5C/C(=C\F)C6)nc4c2F)N2C[C@H]4CC[C@H](N4)[C@H]2[C@H](C)O3)c1C(F)(F)F` [Compound 64, 2-fluoro-5-((5S,5aS,6S,9R)-1-fluoro-12-(((S,Z)-2-(fluoromethylene)tetrahydro-1H-pyrrolizin-7a(5H)-yl)methoxy)-5-methyl-5a,6,7,8,9,10-hexahydro-5H-4-oxa-3,10a,11,13,14-pentaaza-6,9-methanonaphtho[1,8-ab]heptalen-2-yl)-3-methyl-4-(trifluoromethyl)aniline], the IC50 turned out to be 0.9 nM in assay [1] (Homo sapiens, ASPC1, 168 h); 0.46 nM in assay [3] (Homo sapiens, HPAC, 168 h); 235 nM in assay [2] (Homo sapiens, NCI-H1975, 168 h).
For `Cc1cc(N)cc(-c2nc3c4c(nc(OC[C@]56CCCN5CC(F)(F)C6)nc4c2F)N2C[C@H]4CC[C@H](N4)[C@H]2[C@H](C)O3)c1C(F)(F)F` [Compound 69, 3-((5S,5aS,6S,9R)-12-(((R)-2,2-Difluorotetrahydro-1H-pyrrolizin-7a(5H)-yl)methoxy)-1-fluoro-5-methyl-5a,6,7,8,9,10-hexahydro-5H-4-oxa-3,10a,11,13,14-pentaaza-6,9-methanonaphtho[1,8-ab]heptalen-2-yl)-5-methyl-4-(trifluoromethyl)aniline] the same measures were 21.3 nM, 6.42 nM and 1280 nM.
For `C[C@@H]1Oc2nc(-c3cc(N)c(F)cc3C(F)(F)F)c(F)c3nc(OC[C@@H]4CC[C@H]5COCCN54)nc(c23)N2C[C@H]3CC[C@H](N3)[C@@H]12` [Compound 70, 2-Fluoro-5-((5S,5aS,6S,9R)-1-fluoro-12-(((6S,8aS)-hexahydro-1H-pyrrolo[2,1-c][1,4]oxazin-6-yl)methoxy)-5-methyl-5a,6,7,8,9,10-hexahydro-5H-4-oxa-3,10a,11,13,14-pentaaza-6,9-methanonaphtho[1,8-ab]heptalen-2-yl)-4-(trifluoromethyl)aniline] the same measures were 44.1 nM, 11 nM and 1700 nM.
